{"source": "patent US11744903B2", "about": "“Method for preparing cyclodextrin metal organic framework (CD-MOF) stable in aqueous phase” (Qilu University of Technology, priority 2022, dated 2023)"}
{"experiment": "Encapsulation rate of β-CD-MOF for active substances", "format": "physicochemical", "details": "carrier β-CD-MOF; loaded by impregnation, Examples 1-5", "units": {"Encapsulation rate": "%"}}
{"smiles": "O=C/C=C/c1ccccc1", "note": "[Cinnamic aldehyde, cinnamic aldehyde]", "Encapsulation rate": "79.68 ± 0.28"}
{"smiles": "COc1cc2c(=O)c(-c3ccc(O)cc3)coc2cc1O", "note": "[Glycitein, glycitein]", "Encapsulation rate": "76.34 ± 0.23"}
{"smiles": "O=C1C[C@@H](c2ccc(O)cc2)Oc2cc(O)cc(O)c21", "note": "[Naringenin, naringenin]", "Encapsulation rate": "70.23 ± 0.15"}
{"smiles": "Oc1ccc(C=Cc2cc(O)cc(O)c2)cc1", "note": "[Resveratrol, resveratrol]", "Encapsulation rate": "82.19 ± 0.35"}
{"smiles": "Cc1coc2c1C(=O)C(=O)c1c-2ccc2c1CCCC2(C)C", "note": "[Tanshinone IIA, tanshinone IIA]", "Encapsulation rate": "76.40 ± 0.67"}
